# Data reported in patent US20090238766A1, “BIOLUMINESCENT CONSTRUCT” (ABBOTT LABORATORIES, priority 2008, published 2009).
# Test system: caspase-3/7
# Test: In vivo bioluminescent imaging of VivoGlo Caspase-3/7 substrate and caspase-3/7 inactive substrate(s)
# Conditions: mice bearing tumors stably expressing luciferase, treated with apoptosis-inducing cytotoxic therapy (e.g. docetaxel); substrate 62.5 mg/mL intraperitoneally; detected 5-30 minutes post injection
# Protocol: In luciferase-expressing cells undergoing apoptosis, caspase-3/7 will cleave the DEVD peptide from the VivoGlo™ Caspase-3/7 substrate, allowing it to be a substrate for luciferase photon production. […] The photon emission will be detected with a photodetector device at timepoints from 5-30 minutes post injection and quantified.
substance,measurement,value
Z-DEVD-aminoluciferin [VivoGlo Caspase-3/7],bioluminescent signal (photon emission),significant bioluminescent signal
